# Source: article PMC3315319 (Nucleic Acids Research, 2011)
# Target: T1, gp16 (eGFP-gp16) (Bacillus phage phi29, UniProt P11014)
# T1 sequence (P11014 1-332): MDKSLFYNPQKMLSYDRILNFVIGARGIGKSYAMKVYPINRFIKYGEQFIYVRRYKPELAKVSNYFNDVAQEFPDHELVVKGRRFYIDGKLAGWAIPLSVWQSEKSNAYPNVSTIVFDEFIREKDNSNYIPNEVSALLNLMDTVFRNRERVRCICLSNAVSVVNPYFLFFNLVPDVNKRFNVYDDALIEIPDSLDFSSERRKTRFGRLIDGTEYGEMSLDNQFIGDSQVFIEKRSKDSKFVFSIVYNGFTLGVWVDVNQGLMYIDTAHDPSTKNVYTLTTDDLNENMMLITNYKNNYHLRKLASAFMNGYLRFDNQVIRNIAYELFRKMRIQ
# Assay: EMSA, release of dsDNA from gp16/dsDNA/γ-S-ATP complex
# Assay type: binding
# Conditions: γ-S-ATP present, Cy3-dsDNA; indirect read-out of nucleotide action
smiles,measurement,value
Nc1ncnc2c1ncn2[C@@H]1O[C@H](COP(=O)(O)OP(=O)(O)O)[C@@H](O)[C@H]1O [ADP],"EMSA, release of dsDNA from gp16/dsDNA/γ-S-ATP complex",ADP also stimulated the release of gp16 from the gp16/dsDNA complex
